Reference: PMC8041284, “Tunable Methacrylamides for Covalent Ligand Directed Release Chemistry” (Journal of the American Chemical Society, 2021)

Molecular target: BTK (Homo sapiens, UniProt Q06187)
Assay: biochemical
Conditions: read-out: BTK inhibition (%), 0.75 uM BTK, […] probe 3l, 15 min preincubation

BTK, sequence (Q06187 402-655 limits assumed): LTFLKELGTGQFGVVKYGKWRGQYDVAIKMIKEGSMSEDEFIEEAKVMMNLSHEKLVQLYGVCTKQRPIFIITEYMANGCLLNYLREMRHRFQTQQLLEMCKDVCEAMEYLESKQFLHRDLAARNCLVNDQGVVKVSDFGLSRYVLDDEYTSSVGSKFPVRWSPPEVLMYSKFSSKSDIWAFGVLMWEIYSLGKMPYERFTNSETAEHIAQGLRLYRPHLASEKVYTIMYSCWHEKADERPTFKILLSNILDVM

SMILES | inhibition at 10 µM
CCCSc1nc(N[C@@H]2C[C@H]2c2ccc(F)c(F)c2)c2nnn([C@@H]3C[C@H](OCCO)[C@@H](O)[C@H]3O)c2n1 [PCM-0095628] | -34.2%
O=C1c2c(O)cccc2[C@H]([C@@H]2O[C@H](CO)[C@@H](O)[C@H](O)[C@H]2O)c2cc(CO)cc(O)c21 [PCM-0094826] | 21%
CC[C@H](C)C(=O)O[C@H]1C[C@@H](C)C=C2C=C[C@H](C)[C@H](CC[C@@H]3C[C@@H](O)CC(=O)O3)[C@H]21 [PCM-0086045] | 9.3%
C[C@@H]1C(=O)O[C@H](C)[C@H]1C[C@@H](O)[C@](C)(O)[C@H]1CC[C@@]2(O)C3=CC(=O)[C@@H]4C[C@@H](O)[C@@H](O)C[C@]4(C)[C@H]3CC[C@]12C [PCM-0216317] | -5.4%
C[C@H](N[C@@H](CCc1ccccc1)C(=O)O)C(=O)N1CCC[C@H]1C(=O)O [PCM-0065638] | 3.1%
Cc1cc(SCc2sc(-c3ccc(C(F)(F)F)c(F)c3)nc2C)ccc1OCC(=O)O [PCM-0095608] | -5.4%
NC(=O)N1c2ccccc2CC(=O)c2ccccc21 [PCM-0086055] | -10.1%
O=C(O)C(O)Cc1ccc(O)c(O)c1 (centres unmarked) [PCM-0089145] | 18.7%
CN1CCC(=C2c3ccccc3C=Cc3ccccc32)CC1 [PCM-0064430] | -9.3%
CN[C@H]1CC[C@@H](c2ccc(Cl)c(Cl)c2)c2ccccc21 [PCM-0064965] | -19.5%
Nc1nc2c(c(=O)[nH]1)N(C=O)C(CNc1ccc(C(=O)N[C@@H](CCC(=O)O)C(=O)O)cc1)CN2 (some centres unmarked) [PCM-0086396] | -17.9%
OC(CNc1ccccc1)Cn1c2ccc(Br)cc2c2cc(Br)ccc21 (centres unmarked) [PCM-0215533] | 44.8%
Fc1cc(-c2cccc3ncc(-c4cnn(C5CCNCC5)c4)nc23)cc(F)c1CN1CCOCC1 [PCM-0095382] | 78.6%
CC(C)=CCC[C@](C)(O)[C@H]1CC[C@]2(C)[C@@H]1[C@H](O)C[C@@H]1[C@@]3(C)CC[C@H](O[C@@H]4O[C@H](CO)[C@@H](O)[C@H](O)[C@H]4O[C@@H]4O[C@H](CO)[C@@H](O)[C@H](O)[C@H]4O)C(C)(C)[C@@H]3CC[C@]12C [PCM-0216610] | 16.2%
OC[C@H]1O[C@@H](OCCc2ccc(O)cc2)[C@H](O)[C@@H](O)[C@@H]1O [PCM-0094523] | -13.2%
CCS(=O)(=O)N1CC(CC#N)(n2cc(-c3ncnc4[nH]ccc34)cn2)C1 [PCM-0095473] | -20%
COc1ccc2cccc(CCNC(C)=O)c2c1 [PCM-0065343] | -16.3%

SMILES | inhibition at 10 µM
Clc1ccc(CCC(Cn2ccnc2)Sc2c(Cl)cccc2Cl)cc1 (centres unmarked) [PCM-0085946] | 37.4%
Cc1c(CN2CCN(C(=O)[C@H](C)O)CC2)sc2c(N3CCOCC3)nc(-c3cnc(N)nc3)nc12 [PCM-0095406] | 75.2%
CC(=O)[C@H]1CC[C@H]2[C@@H]3CCC4=CC(=O)CC[C@]4(C)[C@H]3CC[C@]12C [PCM-0064761] | -7.8%
Cc1onc(-c2ccccc2)c1-c1ccc(S(N)(=O)=O)cc1 [PCM-0095602] | -38.6%
O=C(O)COCCN1CCN(C(c2ccccc2)c2ccc(Cl)cc2)CC1 (centres unmarked) [PCM-0065180] | 15.2%
O=C(O)c1ccc2c(c1)nc(Nc1cccc(Cl)c1)c1ccncc12 [PCM-0095287] | 13.1%
NC(=O)Nc1sc(-c2ccc(F)cc2)cc1C(N)=O [PCM-0095452] | 96.6%
CC(C)=CCC[C@](C)(O)[C@H]1CC[C@]2(C)[C@@H]1[C@H](O)C[C@@H]1[C@@]3(C)CC[C@H](O)C(C)(C)[C@@H]3[C@@H](O[C@@H]3O[C@H](CO)[C@@H](O)[C@H](O)[C@H]3O[C@@H]3O[C@@H](C)[C@H](O)[C@@H](O)[C@H]3O)C[C@]12C [PCM-0216405] | -5.4%
CNCc1cc(-c2ccccc2F)n(S(=O)(=O)c2cccnc2)c1 [PCM-0095606] | 17%
CCc1cnn2c(NCc3ccc[n+]([O-])c3)cc(N3CCCC[C@H]3CCO)nc12 [PCM-0095529] | -7.6%
Cn1cc(C2=C(c3ccc(Cl)cc3Cl)C(=O)NC2=O)c2ccccc21 [PCM-0064915] | 3.4%
COC(=O)C1=CO[C@@H](O[C@@H]2O[C@H](CO)[C@@H](O)[C@H](O)[C@H]2O)[C@@H]2C(CO)=CC[C@H]12 [PCM-0087450] | -1.6%
Cc1cc(OCc2nnc(SC3CCCC3)n2-c2cccnc2)ccc1-c1ccc(S(C)(=O)=O)cc1 [PCM-0095789] | 0.8%
N#Cc1cc(CN2CCC(Nc3ncnc4sc(Cl)cc34)CC2)ccc1F [PCM-0095600] | 2.3%
NCCS(=O)(=O)O [PCM-0064776] | -6%
O=C(c1ccc(Nc2nccc(-c3cc4ccccc4s3)n2)cc1)N1CCC(N2CCCC2)CC1 [PCM-0095335] | 86.2%

Second part, the compound after the results:

inhibition at 10 µM | SMILES
2.8% | COc1cc(C(=O)N2CCC(N3CCN(C)CC3)CC2)ccc1Nc1ncc2c(n1)N(C)c1ccccc1C(=O)N2C [PCM-0215491]
-10% | O=C(O)[C@H](O)c1ccccc1 [PCM-0216338]
-6.9% | Cc1cc(C)n(C)n1 [PCM-0215908]
-0.7% | CC(C)=CCC[C@](C)(O[C@@H]1O[C@H](CO[C@@H]2O[C@H](CO)[C@@H](O)[C@H](O)[C@H]2O)[C@@H](O)[C@H](O)[C@H]1O)[C@H]1CC[C@]2(C)[C@@H]1[C@H](O)C[C@@H]1[C@@]3(C)CC[C@H](O[C@@H]4O[C@H](CO)[C@@H](O)[C@H](O)[C@H]4O[C@@H]4O[C@H](CO)[C@@H](O)[C@H](O)[C@H]4O)C(C)(C)[C@@H]3CC[C@]12C [PCM-0215030]
6.9% | Cc1ccc(CN(CC(O)COc2cccc3[nH]ccc23)C(C)(C)C)cc1 (centres unmarked) [PCM-0216011]
4.6% | Cc1ccn[nH]1 [PCM-0215907]
-4.1% | C=C1CCC[C@]2(C)C=C3OC(=O)C(C)=C3C[C@@H]12 [PCM-0215796]
-16.2% | CCCc1ccc(OCC(=O)N(Cc2nc(-c3cccnc3)no2)C(C)C)cc1 [PCM-0215326]
15.4% | CC(C)C[C@H](NC(=O)[C@H]1O[C@@H]1C(=O)O)C(=O)NCCCCN=C(N)N [PCM-0215218]
-27.8% | COc1cccc2c1c(O)c(C(=O)N(C)c1ccc(C(F)(F)F)cc1)c(=O)n2C [PCM-0215368]
-6.8% | NC(=O)c1ccc[n+]([C@@H]2O[C@H](COP(=O)([O-])O)[C@@H](O)[C@H]2O)c1 [PCM-0216232]
3.9% | COC(=O)CNC(=O)C(=O)OC [PCM-0215303]
-23.2% | CC(Nc1nc(N2CCCC2)nc2ccccc12)c1ccccc1 (centres unmarked) [PCM-0215774]
20.1% | CN(C)C(=S)NN=C(c1ccccn1)c1ccccn1 [PCM-0215522]
5.5% | COc1ccc(-c2oc3cc(O)cc(O)c3c(=O)c2O)cc1 [PCM-0215098]
4.6% | CC(C)=CCC[C@](C)(O[C@@H]1O[C@H](CO[C@@H]2OC[C@@H](O)[C@H](O)[C@H]2O)[C@@H](O)[C@H](O)[C@H]1O)[C@H]1CC[C@]2(C)[C@@H]1[C@H](O)C[C@@H]1[C@@]3(C)CC[C@H](O[C@@H]4O[C@H](CO)[C@@H](O)[C@H](O)[C@H]4O[C@@H]4O[C@H](CO)[C@@H](O)[C@H](O)[C@H]4O)C(C)(C)[C@@H]3CC[C@]12C [PCM-0216464]
-4.6% | COc1ccc(CCNCC(O)COc2cccc(C)c2)cc1OC (centres unmarked) [PCM-0216046]
1.7% | C[N+](C)(C)CCOP(=O)([O-])OC[C@H](O)CO [PCM-0216043]

inhibition at 10 µM | SMILES
8.5% | CC(C)CCCC(C)CCCC(C)CCCCC(C)CCCC(C)CCCC(C)C (centres unmarked) [PCM-0216154]
10.1% | CCCCCCCCCC(C)=O [PCM-0215930]
-17.8% | O=C(c1cccc(Br)c1)N1CCC(N2CCCC2)CC1 [PCM-0216085]
-7% | COc1ccc([C@@H]2CC(=O)c3c(O)cc(O[C@@H]4O[C@H](CO[C@@H]5O[C@@H](C)[C@H](O)[C@@H](O)[C@H]5O)[C@@H](O)[C@H](O)[C@H]4O)cc3O2)cc1O [PCM-0214677]
24.8% | CC1(C)CC[C@]2(C(=O)O)[C@H](O)C[C@]3(C)C(=CC[C@@H]4[C@@]5(C)CC[C@H](O)C(C)(C)[C@@H]5CC[C@]43C)[C@@H]2C1 [PCM-0214984]
3.9% | CC[C@H]1OC(=O)[C@H](C)[C@@H](O[C@H]2C[C@@](C)(OC)[C@@H](O)[C@H](C)O2)[C@H](C)[C@@H](O[C@@H]2O[C@H](C)C[C@H](N(C)C)[C@H]2O)[C@](C)(O)C[C@@H](C)/C(=N\OCOCCOC)[C@H](C)[C@@H](O)[C@]1(C)O [PCM-0214736]
-21.8% | O=C(O)/C=C/c1ccc(O)cc1 [PCM-0214939]
-21.8% | O=C(O)c1ccco1 [PCM-0215122]
8.6% | CO/N=C(\C(=O)N[C@@H]1C(=O)N2C(C(=O)O)=C(CSc3nnnn3C)CS[C@H]12)c1csc(N)n1 [PCM-0214827]
0.8% | O=C[C@H](O)[C@@H](O)[C@H](O[C@H]1O[C@H](CO)[C@@H](O[C@H]2O[C@H](CO)[C@@H](O[C@H]3O[C@H](CO)[C@@H](O)[C@H](O)[C@H]3O)[C@H](O)[C@H]2O)[C@H](O)[C@H]1O)[C@H](O)CO [PCM-0216456]
7.7% | O=C(Nc1ncc([N+](=O)[O-])s1)c1ccccc1O [PCM-0216250]
92.7% | Cc1ccc(NS(=O)(=O)c2ccc3c(c2)C2C=CCC2C(c2ccc(C(=O)O)cc2)N3)cc1C (centres unmarked) [PCM-0215738]
7.7% | Cc1cc(-c2cc(C)c(NCCCS(=O)(=O)O)c(C)c2)cc(C)c1N [PCM-0216076]
0.8% | COC(=O)N1CCN(Cc2cccc(NC(=O)Nc3ccc(C)nc3)c2F)CC1 [PCM-0214694]
-9.3% | NC(=O)[C@@H]1CC[C@@H]2CN1C(=O)N2OS(=O)(=O)O [PCM-0214883]
5.1% | NC[C@@H]1O[C@H](O[C@H]2[C@@H](O)[C@H](O[C@@H]3[C@@H](O)[C@H](N)C[C@H](N)[C@H]3O[C@H]3O[C@H](CO)[C@@H](O)[C@H](O)[C@H]3N)O[C@@H]2CO)[C@H](N)[C@@H](O)[C@@H]1O [PCM-0215214]
15.9% | COC1CCC(N2C(=O)CNc3ncc(-c4ccc(C(C)(C)O)nc4)nc32)CC1 (centres unmarked) [PCM-0215601]
